In article PMC7377239, “Cardiovascular Effects of Polychlorinated Biphenyls and Their Major Metabolites” (Environmental Health Perspectives, 2020):
Counter-ions that a name gives are not always drawn. Like-named read-outs stand apart in the source and are kept apart here.

Test system: iCell cardiomyocytes (human iPSC-derived cardiomyocytes)
Assay: Intracellular Ca2+ flux / beating parameters in iCell cardiomyocytes (FLIPR tetra), 90 min or 24 h
Type: cell-based
Conditions: for activity at 0.01 µM / activity at 0.1 µM / activity at 1 µM / activity at 10 µM / activity at 100 µM: Homo sapiens, Cardiomyocyte, 0.00 µM = 100.00; for activity at 0.1 µM: 0.10 µM; for inotropic effect (cell beating parameters): iPSC-CMs, concentration-response 0.01-100 μM, 90 min and 24 h
In short: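 PODs were defined as the concentration crossing one SD of the vehicle-control means (0.5% DMSO) on four-parameter logistic fits of Ca2+ trace metrics (peak height, frequency, peak-spacing CV, decay/rise ratio). Traces came from 100 s, 8 Hz FLIPR reads at 37 °C on calcium-dye-loaded iCell cardiomyocytes. Before reading, cells were treated for 90 min or 24 h from 5× chemical plates spanning 0.05–500 µM, in triplicate.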

[1] = 1.5 h, read-out: cm.amp.avg.90min
[2] = 1.5 h, read-out: cm.amp.cv.90min
[3] = 1.5 h, read-out: cm.decay.rise.90min
[4] = 1.5 h, read-out: cm.spacing.cv.90min
[5] = 24 h, read-out: cm.amp.avg.24hrs
[6] = 24 h, read-out: cm.amp.cv.24hrs
[7] = 24 h, read-out: cm.decay.rise.24hrs
[8] = 24 h, read-out: cm.spacing.cv.24hrs

In the case of `Oc1ccc(O)c(-c2ccc(Cl)cc2)c1` [2',5'-DiOH PCB3], the activity at 0.01 µM [1] is reported as 102%, the activity at 0.01 µM [2] is reported as 90% and the activity at 0.01 µM (1.5 h, read-out: cm.bpm.90min) is reported as 99.1%. The activity at 0.01 µM [3] was 97.4%, the activity at 0.01 µM [4] was 113% and the activity at 0.1 µM [1] was 105%. It also gave an activity at 0.1 µM [2] of 110%, an activity at 0.1 µM (1.5 h, read-out: cm.bpm.90min) of 100% and an activity at 0.1 µM [3] of 95.6%. For the same compound, the activity at 0.1 µM [4] was 94%, the activity at 1 µM [1] was 106% and the activity at 1 µM [2] was 93.3%. It also gave an activity at 1 µM (1.5 h, read-out: cm.bpm.90min) of 92.8%, an activity at 1 µM [3] of 98.3% and an activity at 1 µM [4] of 107%. The activity at 10 µM [1] was 110%, the activity at 10 µM [2] was 112% and the activity at 10 µM (1.5 h, read-out: cm.bpm.90min) was 104%. For the same compound, the activity at 10 µM [3] was 105%, the activity at 10 µM [4] was 132% and the activity at 100 µM [1] was 9.07%. For the same compound, the activity at 100 µM [2] was 380%, the activity at 100 µM (1.5 h, read-out: cm.bpm.90min) was 7.52% and the activity at 100 µM [3] was 21.5%. It also gave an activity at 100 µM [4] of 381%, an activity at 0.01 µM [5] of 161% and an activity at 0.01 µM [6] of 75.5%. It also gave an activity at 0.01 µM (24 h, read-out: cm.bpm.24hrs) of 105%, an activity at 0.01 µM [7] of 98.5% and an activity at 0.01 µM [8] of 110%. It also gave an activity at 0.1 µM [5] of 147%, an activity at 0.1 µM [6] of 75% and an activity at 0.1 µM (24 h, read-out: cm.bpm.24hrs) of 100%. For the same compound, the activity at 0.1 µM [7] was 101%, the activity at 0.1 µM [8] was 93.3% and the activity at 1 µM [5] was 141%. For the same compound, the activity at 1 µM [6] was 69.9%, the activity at 1 µM (24 h, read-out: cm.bpm.24hrs) was 92.6% and the activity at 1 µM [7] was 109%. For the same compound, the activity at 1 µM [8] was 89%, the activity at 10 µM [5] was 0% and the activity at 10 µM [6] was 0%. The activity at 10 µM (24 h, read-out: cm.bpm.24hrs) was 0%, the activity at 10 µM [7] was 0% and the activity at 10 µM [8] was 0%. It also gave an activity at 100 µM [5] of 0%, an activity at 100 µM [6] of 0% and an activity at 100 µM (24 h, read-out: cm.bpm.24hrs) of 0%. The activity at 100 µM [7] was 0% and the activity at 100 µM [8] was 0%.

For `Clc1ccc(-c2ccccc2)cc1` [PCB 3, 4-chlorobiphenyl], the “inotropic effect (cell beating parameters)” value was “positive inotropic effects”.

With `O=S(=O)(O)Oc1cc(-c2ccccc2)ccc1Cl` [3-yl PCB 3 sulfate] the activity at 0.01 µM [1] was 95.2%, the activity at 0.01 µM [2] was 101% and the activity at 0.01 µM (1.5 h, read-out: cm.bpm.90min) was 96.5%. The activity at 0.01 µM [3] was 101%, the activity at 0.01 µM [4] was 112% and the activity at 0.1 µM [1] was 102%. For the same compound, the activity at 0.1 µM [2] was 103%, the activity at 0.1 µM (1.5 h, read-out: cm.bpm.90min) was 97.8% and the activity at 0.1 µM [3] was 105%. For the same compound, the activity at 0.1 µM [4] was 107%, the activity at 1 µM [1] was 96.9% and the activity at 1 µM [2] was 94.9%. It also gave an activity at 1 µM (1.5 h, read-out: cm.bpm.90min) of 99.1%, an activity at 1 µM [3] of 97.7% and an activity at 1 µM [4] of 102%. It also gave an activity at 10 µM [1] of 97.3%, an activity at 10 µM [2] of 107% and an activity at 10 µM (1.5 h, read-out: cm.bpm.90min) of 96.5%. The activity at 10 µM [3] was 96.9%, the activity at 10 µM [4] was 101% and the activity at 100 µM [1] was 113%. It also gave an activity at 100 µM [2] of 90.5%, an activity at 100 µM (1.5 h, read-out: cm.bpm.90min) of 99.1% and an activity at 100 µM [3] of 95.6%. It also gave an activity at 100 µM [4] of 92.1%, an activity at 0.01 µM [5] of 58.6% and an activity at 0.01 µM [6] of 42.1%. The activity at 0.01 µM (24 h, read-out: cm.bpm.24hrs) was 49.6%, the activity at 0.01 µM [7] was 54.9% and the activity at 0.01 µM [8] was 62.7%. The activity at 0.1 µM [5] was 51.9%, the activity at 0.1 µM [6] was 31.8% and the activity at 0.1 µM (24 h, read-out: cm.bpm.24hrs) was 47.7%. For the same compound, the activity at 0.1 µM [7] was 58%, the activity at 0.1 µM [8] was 42.3% and the activity at 1 µM [5] was 26.2%. The activity at 1 µM [6] was 69.1%, the activity at 1 µM (24 h, read-out: cm.bpm.24hrs) was 46.8% and the activity at 1 µM [7] was 51.2%. For the same compound, the activity at 1 µM [8] was 53.3%, the activity at 10 µM [5] was 79.1% and the activity at 10 µM [6] was 146%. It also gave an activity at 10 µM (24 h, read-out: cm.bpm.24hrs) of 94.5%, an activity at 10 µM [7] of 96.3% and an activity at 10 µM [8] of 96.4%. The activity at 100 µM [5] was 97.7%, the activity at 100 µM [6] was 77.4% and the activity at 100 µM (24 h, read-out: cm.bpm.24hrs) was 85%. For the same compound, the activity at 100 µM [7] was 116% and the activity at 100 µM [8] was 85.3%.

`COc1ccc(-c2ccc(Cl)cc2)cc1` [4'-OMe-PCB 3, 4′-methoxy-4-chlorobiphenyl] was tested, and the “inotropic effect (cell beating parameters)” value was “positive inotropic effects”.
